Assay results reported in US11013780B2, “Methods of treating female infertility” (Myovant Sciences GmbH, priority 2016, dated 2021).
Where a SMILES comes first, the peptide text is derived from it. [ ]: non-standard residue; d: D form. Arg(Me) = CNC(=N)NCCC[C@H](N)C(=O)O; Hyp = O=C(O)[C@@H]1C[C@@H](O)CN1; azaGly = NNC(=O)O

How the values were obtained:
monkey KISS1R = assay: Intracellular Ca2+ mobilization (fluorometric imaging plate reader), monkey KISS1R; type: cell-based
Protocol: The effects of API-MA on intracellular Ca^2+ mobilization in KISS1R-expressing recombinant cells were evaluated by performing the fluorometric imaging plate reader assay.

[1] = system: 127 enzyme and radio ligand binding assays; assay: Series of 127 enzyme and radio ligand binding assays; details: 10 μmol/L
[2] = In vitro distribution into blood cells, rats; type: in vitro ADME
Protocol: The in vitro distribution ratios of [^14C]API-MA into the blood cells at the concentrations of 0.01, 0.1, 1, and 10 μg/mL API-FB (free form) were 7.8%, 8.0%, 7.1%, and 4.8% for rats, 2.4%, 2.0%, 1.6%, and 1.2% for dogs, and 2.0%, 0.0%, 0.0%, and 0.5% for humans, respectively. […] The in vitro plasma protein binding ratios of [^14C]API-FB in rats, dogs, monkeys, and humans were determined by the ultracentrifugation method. In addition, the protein binding to human serum albumin (HSA), α1-acid glycoprotein (AGP), and HSA/AGP was investigated. […] In rats and dogs, a slight decrease in the binding ratio at the concentration range between 0.1 and 1.0 μg/mL API-FB was observed. In monkeys and humans, the binding was independent of the drug concentrations from 0.01 to 10 μg/mL API-FB.

CYP1A2 = biological target: T1, CYP1A2 (Homo sapiens, UniProt P05177); assay: Inhibition of recombinant CYP1A2; type: in vitro ADME
T1 sequence (P05177 1-516): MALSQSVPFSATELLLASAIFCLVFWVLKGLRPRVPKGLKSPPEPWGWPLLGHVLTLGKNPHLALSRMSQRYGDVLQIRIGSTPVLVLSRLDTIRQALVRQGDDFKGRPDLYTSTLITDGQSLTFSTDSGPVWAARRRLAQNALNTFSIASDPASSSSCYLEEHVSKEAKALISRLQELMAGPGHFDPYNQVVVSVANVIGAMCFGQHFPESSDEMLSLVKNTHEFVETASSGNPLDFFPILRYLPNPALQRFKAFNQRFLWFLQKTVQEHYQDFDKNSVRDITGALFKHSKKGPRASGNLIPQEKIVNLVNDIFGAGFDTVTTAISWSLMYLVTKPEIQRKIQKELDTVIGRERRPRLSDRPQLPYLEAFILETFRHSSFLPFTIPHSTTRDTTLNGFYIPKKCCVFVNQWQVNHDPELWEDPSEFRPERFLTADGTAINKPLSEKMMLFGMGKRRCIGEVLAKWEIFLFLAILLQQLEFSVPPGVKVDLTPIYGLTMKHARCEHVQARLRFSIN

[3] = Tissue distribution and excretion of radioactivity in rats; type: in vivo
Protocol: The concentrations of the radioactivity in the tissues of male albino and pigmented rats were investigated after a single IV administration of [^14C]API-MA at 1.049 mg/kg (1 mg/kg API-FB). […] The radioactivity, measured in albino rats, was rapidly eliminated from all of the tissues after IV administration of API-MA.
The urinary, fecal, biliary, and expiratory excretion of the dosed radioactivity was investigated after a single SC or IV administration of [^14C]API-MA at 1.049 mg/kg (1 mg/kg API-FB) to male Sprague-Dawley rats in two studies.

serum LH, FSH and PSA = assay: Multiple-dose pharmacodynamics, Japanese prostate cancer patients; type: in vivo, human
Protocol: The study was a phase 1 study in hormone naïve Japanese prostate cancer patients. Six patients received API-MA doses of 0.5 mg (3 patients) and 1.0 mg (3 patients) administered via 2-hour SC infusion once daily for 14 days. Summary statistics of serum concentrations of LH, FSH, GH, PRL, and TSH, as well as plasma concentration of ACTH and serum concentration of prostate-specific antigen (PSA), at baseline and at each evaluation point, changes from baseline were calculated for each dose, and the data (individual values and mean±standard deviation) were plotted against time for each dose. […] Changes in serum LH were similar between 0.5 and 1.0 mg of API-MA (data for API-MA 1.0 mg/day dose group not shown).

[4] = rats, IV 1 mg/kg API-FB, 24 hours postdose, first study
[5] = rats, IV 1 mg/kg API-FB, 48 hours postdose, second study
[6] = rats, SC 1 mg/kg API-FB, 24 hours postdose, first study
[7] = rats, SC 1 mg/kg API-FB, 48 hours postdose, second study
[8] = Japanese prostate cancer patients, 0.5 mg/day 2-hour SC infusion for 14 days

With `CC(=O)O.CNC(=N)NCCC[C@H](NC(=O)[C@H](CC(C)C)NC(=O)NNC(=O)[C@H](Cc1ccccc1)NC(=O)[C@@H](NC(=O)[C@H](CC(N)=O)NC(=O)[C@@H]1C[C@@H](O)CN1C(=O)[C@@H](Cc1ccc(O)cc1)NC(C)=O)[C@@H](C)O)C(=O)N[C@@H](Cc1c[nH]c2ccccc12)C(N)=O` [API-MA, 2-(N-Acetyl-D-tyrosyl-trans-4-hydroxy-L-prolyl-Lasparaginyl-L-threonyl-L-phenylalanyl)-hydrazinocarbonyl-L-leucyl-Nω-methyl-L-arginyl-L-tryptophanamide monoacetate] (Ac-[dY][Hyp]NTF[azaGly]L[Arg(Me)]W-NH2) the EC50 (monkey KISS1R; CHO dhfr- cells expressing monkey KISS1R) was 0.074 nM, the “Ratio of EC50 of API-MA to kisspeptin (45-54)” value (monkey KISS1R; monkey KISS1R) was 0.94 and the “Inhibitory effect in enzyme and receptor binding assays” value [1] was “did not show any significant inhibitory effect”. For the same compound, the “Distribution ratio into blood cells” value ([2]; 0.01 μg/mL API-FB) was 7.8%, the “Distribution ratio into blood cells” value ([2]; 0.1 μg/mL API-FB) was 8.0% and the “Distribution ratio into blood cells” value ([2]; 1 μg/mL API-FB) was 7.1%. The “Distribution ratio into blood cells” value ([2]; 10 μg/mL API-FB) was 4.8%, the IC50 (CYP1A2) was greater than 7.78 nM and the “Tissue distribution of radioactivity” value ([3]; male albino and pigmented rats, single IV 1 mg/kg API-FB) was “distributed widely into the tissues”. The “Affinity for melanin in vivo” value ([3]; pigmented rats, single IV 1 mg/kg API-FB) was “little affinity for melanin in vivo”, the “Excretion of radioactivity in bile” value [3, 4] was 20.7% and the “Excretion of radioactivity in feces” value [3, 4] was 0.3%. For the same compound, the “Excretion of radioactivity in urine” value [3, 4] was 76.6%, the “Excretion of radioactivity in feces” value [3, 5] was 28.2% and the “Excretion of radioactivity in urine” value [3, 5] was 70.0%. The “Excretion of radioactivity in bile” value [3, 6] was 15.5%, the “Excretion of radioactivity in feces” value [3, 6] was 0.2% and the “Excretion of radioactivity in urine” value [3, 6] was 84.7%. The “Excretion of radioactivity in feces” value [3, 7] was 20.4%, the “Excretion of radioactivity in urine” value [3, 7] was 78.1% and the Excretion via expiration ([3]; rats, SC or IV 1 mg/kg API-FB, second study) was “minimal”. The “Serum FSH levels” value (serum LH, FSH and PSA; [8]) was “completely suppressed from Day 6 to Day 16”, the “Serum LH levels” value (serum LH, FSH and PSA; [8]) was “completely suppressed from Day 6 to Day 16” and the “Serum PSA decrease compared to baseline” value (serum LH, FSH and PSA; patients receiving 0.5 mg) was “approximately 40%”.
